Assay results from BindingDB's records for doi:10.1016/j.bmcl.2008.07.123 (Bristol-Myers Squibb, 2008).

Experiment: Antagonist activity at CCR2 in human PBMC assessed as MCP1-induced chemotaxis

SMILES | IC50
CCCN1CCC(NCc2ccc(SC)cc2)C(NC(=O)CNC(=O)c2cc(N)cc(C(F)(F)F)c2)C1 (racemic) [(+/-)-3-amino-N-(2-(4-(4-(methylthio)benzylamino)-1-propylpiperidin-3-ylamino)-2-oxoethyl)-5-(trifluoromethyl)benzamide] | 26 nM
CCCN1CCC(NCc2ccc(SC)cc2)C(NC(=O)CNC(=O)c2cc(C(F)(F)F)ccc2NC(=O)NC)C1 (racemic) [(+/-)-N-(2-(4-(4-(methylthio)benzylamino)-1-propylpiperidin-3-ylamino)-2-oxoethyl)-2-(3-methylureido)-5-(trifluoromethyl)benzamide] | 8 nM
CCCN1CCC(NCc2ccc(SC)cc2)C(NC(=O)CNC(=O)c2cc(C(F)(F)F)ccc2N)C1 (racemic) [(+/-)-2-amino-N-(2-(4-(4-(methylthio)benzylamino)-1-propylpiperidin-3-ylamino)-2-oxoethyl)-5-(trifluoromethyl)benzamide] | 5.4 nM
CCCCN1CCC(NCc2ccc(SC)cc2)C(NC(=O)CNC(=O)c2cc(C(F)(F)F)ccc2N)C1 (racemic) [(+/-)-2-amino-N-(2-(1-butyl-4-(4-(methylthio)benzylamino)piperidin-3-ylamino)-2-oxoethyl)-5-(trifluoromethyl)benzamide] | 19 nM
CCCCN1CCC(NC(=O)c2ccc(SC)cc2)C(NC(=O)CNC(=O)c2cc(C(F)(F)F)ccc2N)C1 (racemic) [(+/-)-2-amino-N-(2-(1-butyl-4-(4-(methylthio)benzamido)piperidin-3-ylamino)-2-oxoethyl)-5-(trifluoromethyl)benzamide] | 17.5 nM
CSc1ccc(CNC2CCN(C)CC2NC(=O)CNC(=O)c2cc(C(F)(F)F)ccc2N)cc1 (racemic) [(+/-)-2-amino-N-(2-(1-methyl-4-(4-(methylthio)benzylamino)piperidin-3-ylamino)-2-oxoethyl)-5-(trifluoromethyl)benzamide] | 27.5 nM
CSc1ccc(CNC2CCNCC2NC(=O)CNC(=O)c2cc(C(F)(F)F)ccc2N)cc1 (racemic) [(+/-)-2-amino-N-(2-(4-(4-(methylthio)benzylamino)piperidin-3-ylamino)-2-oxoethyl)-5-(trifluoromethyl)benzamide] | 285 nM
CSc1ccc(C(=O)NC2CCN(C)CC2NC(=O)CNC(=O)c2cc(C(F)(F)F)ccc2N)cc1 (racemic) [(+/-)-2-amino-N-(2-(1-methyl-4-(4-(methylthio)benzamido)piperidin-3-ylamino)-2-oxoethyl)-5-(trifluoromethyl)benzamide] | 38.5 nM
CCCN1CCC(NC(=O)c2ccc(SC)cc2)C(NC(=O)CNC(=O)c2cc(N)cc(C(F)(F)F)c2)C1 (racemic) [(+/-)-3-amino-N-(2-(4-(4-(methylthio)benzamido)-1-propylpiperidin-3-ylamino)-2-oxoethyl)-5-(trifluoromethyl)benzamide] | 25 nM
CCCN1CCC(NCc2ccc(SC)cc2)C(NC(=O)CNC(=O)c2cc(C(F)(F)F)ccc2NC(=O)N2CCCC2)C1 (racemic) [(+/-)-N-(2-(2-(4-(4-(methylthio)benzylamino)-1-propylpiperidin-3-ylamino)-2-oxoethylcarbamoyl)-4-(trifluoromethyl)phenyl)pyrrolidine-1-carboxamide] | 4.8 nM
